From patent US12473278B2 (Industry—University Cooperation Foundation Hangyang …, priority 2019, dated 2025)
Read-outs that look alike come from different tables or passages of the source.

What was measured:
[1] = biological target: T1, FLT3 (Homo sapiens (Human), UniProt P36888); assay: Measurement of FLT3 enzyme activity; type: biochemical
Text: Measurement of FLT3 Enzyme Activity
A change in FLT3 enzyme activity by treatment with the benzimidazole derivatives of the following Table 1 according to the present invention was confirmed by IC50.

[2] = biological target: FGFR3 (Homo sapiens (Human), UniProt P22607); assay: Kinase panel screening; details: read-out: Staurosporine IC50; FGFR3; control compound per footnote b
FGFR3, sequence (P22607 23-806, species assumed): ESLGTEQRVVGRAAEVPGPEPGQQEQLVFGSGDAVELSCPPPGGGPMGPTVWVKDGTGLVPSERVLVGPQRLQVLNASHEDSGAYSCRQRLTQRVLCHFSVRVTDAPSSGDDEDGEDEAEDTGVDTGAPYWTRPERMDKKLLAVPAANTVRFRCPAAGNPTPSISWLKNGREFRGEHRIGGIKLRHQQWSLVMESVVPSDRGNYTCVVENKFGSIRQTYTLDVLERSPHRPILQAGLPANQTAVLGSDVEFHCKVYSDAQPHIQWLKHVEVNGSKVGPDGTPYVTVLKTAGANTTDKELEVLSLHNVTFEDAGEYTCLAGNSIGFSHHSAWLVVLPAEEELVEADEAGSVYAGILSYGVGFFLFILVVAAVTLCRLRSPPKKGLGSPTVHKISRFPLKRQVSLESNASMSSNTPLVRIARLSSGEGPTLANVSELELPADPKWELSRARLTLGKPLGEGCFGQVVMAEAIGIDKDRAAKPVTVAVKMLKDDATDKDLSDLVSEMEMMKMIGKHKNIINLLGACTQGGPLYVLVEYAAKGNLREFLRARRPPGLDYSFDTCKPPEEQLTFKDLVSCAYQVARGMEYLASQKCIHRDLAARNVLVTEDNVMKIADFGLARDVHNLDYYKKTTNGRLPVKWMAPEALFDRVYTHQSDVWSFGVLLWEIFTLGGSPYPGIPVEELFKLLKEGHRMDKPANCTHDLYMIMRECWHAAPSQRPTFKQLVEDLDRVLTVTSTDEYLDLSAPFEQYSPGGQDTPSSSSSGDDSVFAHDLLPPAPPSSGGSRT
Text: (§1) Measurement of Inhibitory Activity Against Various Protein Kinases

[3] = test system: FLT3 (ITD); assay: Kinase panel screening; details: single dose of 10 μM
Text: as §1

[4] = biological target: RAFI (Homo sapiens (Human), UniProt P04049); assay: Kinase panel screening; details: read-out: % inhibition rate
RAFI, sequence (P04049 whole entry): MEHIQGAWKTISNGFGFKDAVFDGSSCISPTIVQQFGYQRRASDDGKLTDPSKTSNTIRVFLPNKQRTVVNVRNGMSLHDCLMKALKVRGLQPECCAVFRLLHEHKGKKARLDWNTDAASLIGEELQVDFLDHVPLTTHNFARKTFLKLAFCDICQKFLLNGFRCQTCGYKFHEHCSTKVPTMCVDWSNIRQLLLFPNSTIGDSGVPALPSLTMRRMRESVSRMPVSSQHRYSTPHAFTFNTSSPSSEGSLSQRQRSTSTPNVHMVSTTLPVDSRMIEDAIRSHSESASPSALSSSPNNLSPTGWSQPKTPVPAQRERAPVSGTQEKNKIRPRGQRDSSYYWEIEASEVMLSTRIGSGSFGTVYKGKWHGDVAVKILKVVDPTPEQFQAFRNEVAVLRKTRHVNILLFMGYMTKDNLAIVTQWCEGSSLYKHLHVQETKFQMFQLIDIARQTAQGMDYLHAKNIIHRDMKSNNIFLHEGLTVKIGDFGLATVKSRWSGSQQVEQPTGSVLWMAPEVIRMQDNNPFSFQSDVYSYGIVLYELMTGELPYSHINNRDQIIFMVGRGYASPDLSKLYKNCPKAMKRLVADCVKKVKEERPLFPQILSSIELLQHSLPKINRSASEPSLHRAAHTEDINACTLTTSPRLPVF
Text: as §1

[5] = biological target: FMS (Homo sapiens (Human), UniProt P07333); assay: Kinase panel screening; type: biochemical
FMS, sequence (P07333 20-972, species assumed): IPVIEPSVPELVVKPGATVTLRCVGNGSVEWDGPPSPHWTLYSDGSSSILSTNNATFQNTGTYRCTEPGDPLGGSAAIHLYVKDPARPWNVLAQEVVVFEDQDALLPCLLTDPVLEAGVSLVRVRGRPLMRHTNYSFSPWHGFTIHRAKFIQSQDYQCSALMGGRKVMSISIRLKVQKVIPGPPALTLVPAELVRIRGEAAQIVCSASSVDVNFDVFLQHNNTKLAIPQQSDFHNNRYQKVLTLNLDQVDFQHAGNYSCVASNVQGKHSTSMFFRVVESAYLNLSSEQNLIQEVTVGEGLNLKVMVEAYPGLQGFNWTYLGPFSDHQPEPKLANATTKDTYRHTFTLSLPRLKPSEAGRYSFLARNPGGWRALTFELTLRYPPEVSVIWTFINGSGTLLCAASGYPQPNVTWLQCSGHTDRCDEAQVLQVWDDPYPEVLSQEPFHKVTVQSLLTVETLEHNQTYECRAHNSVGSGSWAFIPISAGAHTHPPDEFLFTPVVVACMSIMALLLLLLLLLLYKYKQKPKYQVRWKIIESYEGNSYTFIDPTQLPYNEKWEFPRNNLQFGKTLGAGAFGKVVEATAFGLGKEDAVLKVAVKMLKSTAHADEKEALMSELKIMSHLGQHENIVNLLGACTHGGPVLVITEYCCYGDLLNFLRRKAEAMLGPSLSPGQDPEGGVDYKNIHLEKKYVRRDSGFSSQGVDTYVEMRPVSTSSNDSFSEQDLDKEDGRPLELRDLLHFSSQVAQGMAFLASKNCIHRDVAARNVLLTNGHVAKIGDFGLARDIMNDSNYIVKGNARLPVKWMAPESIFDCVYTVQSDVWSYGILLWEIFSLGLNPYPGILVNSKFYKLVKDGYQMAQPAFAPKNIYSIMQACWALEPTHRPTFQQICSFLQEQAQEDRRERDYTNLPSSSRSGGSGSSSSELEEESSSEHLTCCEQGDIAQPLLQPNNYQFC

[6] = biological target: T1, FLT3; assay: Kinase panel screening; details: FLT3; single dose of 10 μM
Text: as §1

[7] = FLT3 enzyme activity, read-out: FLT3 (IC50)
[8] = FLT3 kinase activity, read-out: IC50 against FLT3

T1 sequence (P36888 27-993): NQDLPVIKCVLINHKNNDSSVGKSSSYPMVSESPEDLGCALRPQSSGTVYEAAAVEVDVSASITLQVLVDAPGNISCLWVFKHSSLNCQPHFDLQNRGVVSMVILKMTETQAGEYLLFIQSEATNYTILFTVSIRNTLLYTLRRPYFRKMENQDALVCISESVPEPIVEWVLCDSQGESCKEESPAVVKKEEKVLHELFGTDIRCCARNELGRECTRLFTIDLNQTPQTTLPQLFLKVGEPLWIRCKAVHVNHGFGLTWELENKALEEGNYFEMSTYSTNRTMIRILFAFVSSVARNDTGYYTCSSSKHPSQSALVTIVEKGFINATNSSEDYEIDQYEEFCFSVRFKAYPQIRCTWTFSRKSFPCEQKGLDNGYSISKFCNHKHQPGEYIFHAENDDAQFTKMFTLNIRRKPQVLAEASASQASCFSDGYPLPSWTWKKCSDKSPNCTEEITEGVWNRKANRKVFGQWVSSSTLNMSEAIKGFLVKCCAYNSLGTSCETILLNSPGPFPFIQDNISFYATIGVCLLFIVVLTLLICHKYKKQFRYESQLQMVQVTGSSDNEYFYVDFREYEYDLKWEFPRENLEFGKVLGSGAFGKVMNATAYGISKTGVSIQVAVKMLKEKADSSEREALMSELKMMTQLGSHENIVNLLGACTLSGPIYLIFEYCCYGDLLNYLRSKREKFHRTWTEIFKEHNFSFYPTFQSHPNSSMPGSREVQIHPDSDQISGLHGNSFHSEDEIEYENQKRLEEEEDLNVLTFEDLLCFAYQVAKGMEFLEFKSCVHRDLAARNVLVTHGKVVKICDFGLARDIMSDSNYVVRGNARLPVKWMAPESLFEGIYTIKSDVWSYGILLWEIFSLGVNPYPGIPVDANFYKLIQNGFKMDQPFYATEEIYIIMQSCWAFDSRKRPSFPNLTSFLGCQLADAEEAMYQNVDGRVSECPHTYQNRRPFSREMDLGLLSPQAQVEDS

Cc1oncc1C(=O)Nc1ccc2[nH]c(-c3ccc(N4CCOCC4)c(C(F)(F)F)c3)nc2c1 [Compound 5c, 5-methyl-N-(2-(4-morpholino-3-(trifluoromethyl)phenyl)-1H-benz[d]imidazol-5-yl)isoxazole-4-carboxamide]
IC50 [1, 7]: 3 to 10 µM | IC50 [1, 8]: 10 µM

CC(=O)N1CCC(c2nc3cc(NC(=O)c4cnoc4C)ccc3[nH]2)CC1 [Compound 5o, N-(2-(1-acetylpiperidin-4-yl)-1H-benz[d]imidazol-5-yl)-5-methylisoxazole-4-carboxamide]
IC50 [1, 7]: > 10 µM

Cc1oncc1C(=O)Nc1ccc2[nH]c(-c3cc(-n4cncc4C)cc(C(F)(F)F)c3)nc2c1 [Compound 5e, 5-methyl-N-(2-(3-(5-methyl-1H-imidazol-1-yl)-5-(trifluoromethyl)phenyl)-1H-benz[d]imidazol-5-yl)isoxazole-4-carboxamide]
IC50 [1, 7]: < 3 µM

Cc1oncc1C(=O)Nc1ccc2[nH]c(-c3cc(-n4ccnc4C)cc(C(F)(F)F)c3)nc2c1 [Compound 5f, 5-methyl-N-(2-(3-(2-methyl-1H-imidazol-1-yl)-5-(trifluoromethyl)phenyl)-1H-benz[d]imidazol-5-yl)isoxazol-4-carboxamide]
IC50 [1, 7]: > 10 µM

Cc1oncc1C(=O)Nc1cccc2[nH]c(-c3ccc(N4CCOCC4)c(C(F)(F)F)c3)nc12 [Compound 6b, 5-methyl-N-(2-(4-morpholino-3-(trifluoromethyl)phenyl)-1H-benz[d]imidazol-4-yl)isoxazole-4-carboxamide]
IC50 [1, 7]: > 10 µM

Cc1oncc1C(=O)Nc1ccc2[nH]c(C3CCCC3)nc2c1 [Compound 5p, N-(2-cyclopentyl-1H-benz[d]imidazol-5-yl)-5-methylisoxazole-4-carboxamide]
IC50 [1, 7]: > 10 µM

CCN1CCN(Cc2ccc(-c3nc4cc(NC(=O)c5cnoc5C)ccc4[nH]3)cc2C(F)(F)F)CC1 [Compound 5n, N-(2-(4-((4-ethylpiperazin-1-yl)methyl)-3-(trifluoromethyl)phenyl)-1H-benz[d]imidazol-5-yl)-5-methylisoxazole-4-carboxamide]
IC50 [1, 7]: 3 to 10 µM

Cc1oncc1C(=O)Nc1ccc2[nH]c(-c3ccc(Cl)c(C(F)(F)F)c3)nc2c1 [Compound 5k, N-(2-(4-chloro-3-(trifluoromethyl)phenyl)-1H-benz[d]imidazol-5-yl)-5-methylisoxazole-4-carboxamide]
IC50 [1, 7]: 3 to 10 µM

Cc1cn(-c2cc(-c3nc4cc(NC(=O)c5cnoc5C)ccc4[nH]3)cc(C(F)(F)F)c2)cn1 [Compound 5d, 5-methyl-N-(2-(3-(4-methyl-1H-imidazol-1-yl)-5-(trifluoromethyl)phenyl)-1H-benz[d]imidazol-5-yl)isoxazole-4-carboxamide]
IC50 [1, 7]: < 3 µM

CCN1CCN(Cc2cc(-c3nc4cc(NC(=O)c5cnoc5C)ccc4[nH]3)cc(C(F)(F)F)c2)CC1 [Compound 5m, N-(2-(3-((4-ethylpiperazin-1-yl)methyl)-5-(trifluoromethyl)phenyl)-1H-benz[d]imidazol-5-yl)-5-methylisoxazole-4-carboxamide]
IC50 [1, 7]: 3 to 10 µM

O=C(Nc1ccc2[nH]nc(-c3ccncc3)c2c1)[C@@H]1CCN(CC(=O)N2CCN(c3ccc(-c4ncccn4)cc3)CC2)C1 [SCH772984, reference compound]
IC50 [2]: 0.0147 µM

Cc1cn(-c2cc(-c3nc4c(NC(=O)c5cnoc5C)cccc4[nH]3)cc(C(F)(F)F)c2)cn1 [Compound 6c, 5-methyl-N-(2-(3-(4-methyl-1H-imidazol-1-yl)-5-(trifluoromethyl)phenyl)-1H-benz[d]imidazol-4-yl)isoxazole-4-carboxamide]
IC50 [1, 7]: 3 to 10 µM

Cc1oncc1C(=O)Nc1ccc2[nH]c(-c3cc(N4CCN(C)CC4)cc(C(F)(F)F)c3)nc2c1 [Compound 5a, 5-methyl-N-(2-(3-(4-methylpiperazin-1-yl)-5-(trifluoromethyl)phenyl)-1H-benz[d]imidazol-5-yl)isoxazole-4-carboxamide]
IC50 [1, 7]: < 3 µM | IC50 [1, 8]: 0.495 µM | % inhibition rate [3]: 88.48% | inhibition at 10 µM [4]: 8.47% | inhibition at 10 µM ([5]; read-out: % inhibition rate): 0% | activity against other protein kinases, particularly FMS (in words) ([5]; single dose of 10 μM): did not exhibit significant activity | % inhibition rate [6]: 89.97%

Cc1oncc1C(=O)Nc1ccc2[nH]c(-c3ccc(N4CCN(C)CC4)c(C(F)(F)F)c3)nc2c1 [Compound 5j, 5-methyl-N-(2-(4-(4-methylpiperazin-1-yl)-3-(trifluoromethyl)phenyl)-1H-benz[d]imidazol-5-yl)isoxazole-4-carboxamide]
IC50 [1, 7]: > 10 µM

Cc1oncc1C(=O)Nc1ccc2[nH]c(-c3cc(F)cc(C(F)(F)F)c3)nc2c1 [Compound 5h, N-(2-(3-fluoro-5-(trifluoromethyl)phenyl)-1H-benz[d]imidazol-5-yl)-5-methylisoxazole-4-carboxamide]
IC50 [1, 7]: > 10 µM

Cc1oncc1C(=O)Nc1ccc2[nH]c(-c3cc(OC4CCN(C)CC4)cc(C(F)(F)F)c3)nc2c1 [Compound 5i, 5-methyl-N-(2-(3-((1-methylpiperidin-4-yl)oxy)-5-(trifluoromethyl)phenyl)-1H-benz[d]imidazol-5-yl)isoxazole-4-carboxamide]
IC50 [1, 7]: 3 to 10 µM

Cc1oncc1C(=O)Nc1ccc2[nH]c(-c3ccc(Cl)cc3)nc2c1 [Compound 5l, N-(2-(4-chlorophenyl)-1H-benz[d]imidazol-5-yl)-5-methylisoxazole-4-carboxamide]
IC50 [1, 7]: 3 to 10 µM

Cc1oncc1C(=O)Nc1cccc2[nH]c(-c3cc(N4CCN(C)CC4)cc(C(F)(F)F)c3)nc12 [Compound 6a]
IC50 [1, 7]: < 3 µM
